Reference: patent publication EP1038880B1, “Androstanes and pregnanes for allosteric modulation of GABA receptor” (priority 1994, dated 1995)
pIC50: −log10 of the molar value.

Tests used:
GR complex = test: [35S]TBPS binding assay (inhibition of [35S]TBPS binding, cerebral cortex P2 homogenate); parameters: species or system rat; conditions: for pIC50: 2 nM [35S]TBPS, rat cerebral cortex P2 homogenate; for IMAX: maximum inhibition of [35S]TBPS binding
Summary of the method: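 Rat (male Sprague-Dawley) cortical P2 homogenate (0.5 mg protein) in 50 mM Na/K phosphate pH 7.4, 200 mM NaCl, incubated with 2 nM [35S]TBPS plus steroid test compounds (DMSO) in presence of GABA plus (+)bicuculline, 25°C, 90 min. Filtration, scintillation counting; nonspecific binding defined with […].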

[1] = system: N.I.H. Swiss-Webster mice; test: Elevated plus-maze; assay type: in vivo; conditions: for response vs control in vivo at 10 mg/kg: Mus musculus, ip, read-out: % Control
Source text: The theoretical basis for the elevated plus-maze test is similar to that of the light/dark transition test. […] The apparatus consists of two open-arms and two enclosed-arms. The elevated plus-maze test allows for two measures of anxiety, the number of entries into the open-arms and the time spent on the open-arms, both expressed as a percentage of the total number of entries and time spent in/on both the open-arms and enclosed-arms.
Male N.LH. Swiss-Webster mice (Harlan, Indianapolis, IN) weighing 15-20 g were housed four per cage in polyethylene cages with sawdust bedding. The colony mom was environmentally controlled (22°C) with a 12^- hr light/dark cycle (0600-1800 hr). Food and water were available ad libitum, except during testing. The experiments were run from 0700-1500 hr and groups were counterbalance for time of day effects. Mice were only administered drug or vehicle once.
The apparatus included two open arms perpendicular to two enclosed arms elevated 50 cm from the floor. Each arm was 50 cm long and the walls of the enclosed arms were 40 cm tall. The maze was made completely of black plexiglass. Incandescent 200 W light bulbs were above each of the open arms to produce a strong contrast between the open arms and the enclosed arms.
Ten minutes after an injection, the N.I.H. Swiss-Webster mice were placed in the center of the plus-maze facing an open arm. During the 5 min test period, the number of entries onto the open arms and the enclosed arms, and the time spent in the open arms and enclosed arms were measured. All four paws had to be within an arm for the dependent variable to be measured. Therefore, the time spent in the center of the maze is not counted, so the total time spent in the open arms and the enclosed arms may not equal 5 min.

[2] = system: metrazol induced convulsions; test: animal or person; assay type: in vivo, mice; conditions: IP; for responders at 10 mg/kg: Mus musculus, 10 min, 10 minutes prior to metrazol (85 mg/kg), read-out: % Protected
Procedure: Experiments were also performed to determine the physiological relevance of neuroactive steroid and GABA receptor interactions by assessing the ability of the compounds of and used in the invention to prevent metrazol induced convulsions in mice. Mice were injected with various doses of the test compounds of the invention, 10 minutes prior to the injection of metrazol. The time to onset of myoclomis (presence of forelimb clonic activity) induced by metrazol was determined by observing each mouse for a period of 30 minutes. […] Table 6: Antimetrazol Activity of Neuroactive Steroids in Mice
The anticonvulsant tests are similar to that described above. […] The number of animals with tonic and/or clonic convulsions was recorded. In the maximal electroshock test, 50 mA of current at 60 Hz was delivered through corneal electrodes for 200 msec to induce tonic seizure. The ability of compounds to abolish the tonic component was defined as the endpoint. General CNS depression potential was determined by a rotorod test 10 minutes after the injection of compounds where the number of mice staying on a rotating (6 rpm) rod for 1 minute in one of the three trials was determined. […] Table 7. Anticonvulsant Activity of Exemplified Neuroactive Steroids and those of Selected Clinically Useful Anticonvulsants in Mice

Structure (SMILES)	pIC50 (GR complex)	IMAX (GR complex)	response vs control in vivo at 10 mg/kg [1]	responders at 10 mg/kg [2]	% Control ([1]; IP, 1 mg/kg, 50% hpbcd)	% Protected ([2]; 1 mg/kg, 50% hpbcd)
COc1ccccc1C#C[C@@]1(O)CC[C@@]2(C)[C@H](CC[C@@H]3[C@@H]2CC[C@]2(C)[C@@H](C(C)=O)CC[C@@H]32)C1 [3α-hydroxy-3β-(2'-methoxyphenyl)ethynyl-5β-pregnan-20-one]	6.62	99%	152%	12.5%		
CC(=O)[C@H]1CC[C@H]2[C@@H]3CC[C@@H]4C[C@@](O)(C#Cc5cccs5)CC[C@]4(C)[C@H]3CC[C@]12C [3α-hydroxy-3β-(2'-thienyl)ethynyl-5β-pregnan-20-one]	7.23	100%	148%	37.5%		
CC(=O)[C@H]1CC[C@H]2[C@@H]3CC[C@@H]4C[C@@](O)(C#Cc5ccc(C)cc5)CC[C@]4(C)[C@H]3CC[C@]12C [3α-hydroxy-3β-(4'-methylphenylethynyl)-5β-pregnan-20-one]	7.06	84%	148%	75%		
CC(=O)[C@H]1CC[C@H]2[C@@H]3CC[C@@H]4C[C@@](O)(C#CCn5cccn5)CC[C@]4(C)[C@H]3CC[C@]12C [3α-hydroxy-3β-[3-(1'H-pyrazol-1'-yl)-1-propynyl]-5β-pregnan-20-one]	7.09	98%	116%	25%		
C#CCOCC#C[C@@]1(O)CC[C@@]2(C)[C@H](CC[C@@H]3[C@@H]2CC[C@]2(C)[C@@H](C(C)=O)CC[C@@H]32)C1 [3α-hydroxy-3β-[3-(2'-propynyloxy)-1-propynyl]-5β-pregnan-20-one]	7.55	105%	178%	50%		
CC(=O)CCCC#C[C@@]1(O)CC[C@@]2(C)[C@H](CC[C@@H]3[C@@H]2CC[C@]2(C)[C@@H](C(C)=O)CC[C@@H]32)C1 [3α-hydroxy-3β-[6'-oxo-1'-heptynyl]-5β-pregnan-20-one]	7.05	101%	130%	62.5%		
C[C@@]1(O)CC[C@@]2(C)[C@@H](CC[C@@H]3[C@@H]2CC[C@]2(C)[C@@H](C(=O)Cn4ccnc4)CC[C@@H]32)C1 [3α-hydroxy-21-(1'-imidazolyl)-3β-methyl-5α-pregnan-20-one]	7.01	95%	144%	75%		
C[C@@]1(O)CC[C@@]2(C)[C@@H](CC[C@@H]3[C@@H]2CC[C@]2(C)[C@@H](C(=O)Cn4cccn4)CC[C@@H]32)C1 [3α-hydroxy-21-(1'-pyrazolyl)-3β-methyl-5α-pregnan-20-one]	6.94	98%	154%	87.5%		
Cc1cc(C)n(CC(=O)[C@H]2CC[C@H]3[C@@H]4CC[C@@H]5C[C@H](O)CC[C@]5(C)[C@H]4CC[C@]23C)n1 [3α-hydroxy-21-(1H-3,5-dimethylpyrazolyl)-5β-pregnan-20-one]	7.02	77%	128%	50%		
C[C@]12CC[C@@H](O)C[C@H]1CC[C@@H]1[C@@H]2CC[C@]2(C)[C@@H](C(=O)Cn3nccn3)CC[C@@H]12 [3α-hydroxy-21-(2H-1,2,3-triazol-2-yl)-5β-pregnan-20-one]	7.25	79%	164%	100%		
C[C@]12CC[C@@H](O)C[C@H]1CC[C@@H]1[C@@H]2CC[C@]2(C)[C@@H](C(=O)Cn3cccn3)CC[C@@H]12 [3α-hydroxy-21-(pyrazol-1-yl)-5β-pregnan 20-one]	6.92	67%	129%	62.5%		
CC(=O)c1ccc(C#CC2(O)CCC3(C)C(CCC4C3CCC3(C)C(C(=O)CO)CCC43)C2)cc1 (stereo not drawn) [3β-(4'-Acetylphenylethynyl)-3α-21-dihydroxy-5α-pregnan-20-one]	8.40	92%			150%	87.5%
CC(=O)[C@H]1CC[C@H]2[C@@H]3CC[C@@H]4C[C@@](O)(C#Cc5ccc(C#N)cc5)CC[C@]4(C)[C@H]3CC[C@]12C [3β-(4'-Cyanophenyl)ethynyl-3α-hydroxy-5β-pregnan-20-one]	7.14	92%	169%	43.7%		
CC(=O)c1ccc(C#C[C@@]2(O)CC[C@@]3(C)[C@H](CC[C@@H]4[C@@H]3CC[C@]3(C)[C@@H](C(=O)CO)CC[C@@H]43)C2)cc1 [3β-(4'-acetylphenylethynyl)-3α,21-dihydroxy-5β-pregnan-20-one]	7.66	99%	115%	75%		
CC(=O)[C@H]1CC[C@H]2[C@@H]3CC[C@@H]4C[C@@](O)(C#Cc5ccc(-c6ccccc6)cc5)CC[C@]4(C)[C@H]3CC[C@]12C [3β-(4'-biphenylethynyl)-3α-hydroxy-5β-pregnan-20-one]	7.37	83%	111%	0%		
CC(=O)[C@H]1CC[C@H]2[C@@H]3CC[C@@H]4C[C@@](O)(C#CCCCO)CC[C@]4(C)[C@H]3CC[C@]12C [3β-(5'-hydroxy-1'-pentynyl)-3α-hydroxy-5β-pregnan-20-one]	7.24	100%	137%	12.5%		
CC(=O)c1ccc(C#C[C@@]2(O)CC[C@@]3(C)[C@H](CC[C@@H]4[C@@H]3CC[C@]3(C)[C@@H](C(C)=O)CC[C@@H]43)C2)s1 [3β-(5-Acetylthien-2-yl)ethynyl-3α-hydroxy-5β-pregnan-20-one]	7.28	89%	83%	25%		
C#C[C@@]1(O)CC[C@@]2(C)[C@H](CC[C@@H]3[C@@H]2CC[C@]2(C)[C@@H](C(=O)Cn4ccnc4)CC[C@@H]32)C1 [3β-ethynyl-3α-hydroxy-21-(1'-imidazolyl)-5β-pregnan-20-one]	7.10	103%	179%	50%		
C#C[C@@]1(O)CC[C@@]2(C)[C@H](CC[C@@H]3[C@@H]2CC[C@]2(C)[C@@H](C(=O)Cn4cccn4)CC[C@@H]32)C1 [3β-ethynyl-3α-hydroxy-21-(1'-pyrazolyl)-5β-pregnan-20-one]	6.97	99%	180%	62.5%		
C[C@@]1(O)CC[C@@]2(C)[C@@H](CC[C@@H]3[C@@H]2CC[C@]2(C)[C@@H](C(=O)CSS(=O)(=O)[O-])CC[C@@H]32)C1.[Na+] [sodium S-(3α-hydroxy-3β-methyl-5α-pregnan-20-on-21-yl) thiosulfate]	6.82	101%	125%	62.5%		
C[C@]12CC[C@@H](O)C[C@H]1CC[C@@H]1[C@@H]2CC[C@]2(C)[C@@H](C(=O)CSS(=O)(=O)[O-])CC[C@@H]12.[Na+] [sodium S-(3α-hydroxy-5β-pregnan-20-on-21-yl) thiosulfate]	6.57	88%	143%	37.5%		
